Experimental data from patent US20070244006A1, “Fungicidal Mixtures” (priority 2004, published 2007).

Key:
[1] = system: Pyrenophora teres; experiment: Activity against net blotch of barley caused by Pyrenophora teres, 1 day protective application; format: in vivo, Pyrenophora [syn. Drechslera] teres; conditions: barley seedlings cultivar Hanna, inoculated 24 hours after treatment
Experimental: (§1) The active compounds, separately or jointly, were prepared as a stock solution comprising 0.25% by weight of active compound in acetone or DMSO. 1% by weight of the emulsifier Uniperol® EL (wetting agent having emulsifying and dispersant action based on ethoxylated alkylphenols) was added to this solution, and the mixture was diluted with water to the desired concentration.
Leaves of potted barley seedlings of the cultivar “Hanna” were sprayed to runoff point with an aqueous suspension having the concentration of active compound stated below. 24 hours after the spray coating had dried on, the test plants were inoculated with an aqueous spore suspension of Pyrenophora [syn. Drechslera] teres, the net blotch pathogen. The test plants were then placed in a greenhouse at temperatures between 20 and 24° C. and at 95 to 100% relative atmospheric humidity. After 6 days, the extent of the development of the disease was determined visually in % infection of the entire leaf area.
(§2) Evaluation was carried out analogously to example 1.

[2] = system: Venturia inaequalis; experiment: Activity against scab on apple leaves caused by Venturia inaequalis, protective application; format: in vivo; conditions: inoculated 12 days after treatment
Experimental: as §1
Leaves of apples were sprayed to runoff point with an aqueous suspension having the concentration of active compound stated below. After 12 days, the treated plants were inoculated with an aqueous spore suspension of Venturia inaequalis. The apples were then initially placed in a water-vapor-saturated chamber at 24° C. for 48 hours and then in a greenhouse at temperatures between 20 and 24° C. for 20 days. The extent of the development of the infection on the upper sides of the leaves was then determined visually.
The visually determined percentages of infected leaf areas were converted into efficacies in % of the untreated control:
The efficacy (E) is calculated as follows using Abbot's formula: E=(1−α/β)[…] α corresponds to the fungal infection of the treated plants in % and β corresponds to the fungal infection of the untreated (control) plants in % An efficacy of 0 means that the infection level of the treated plants corresponds to that of the untreated control plants; an efficacy of 100 means that the treated plants were not infected.
The expected efficacies of mixtures of active compounds were determined using Colby's formula (Colby, S. R. “Calculating synergistic and antagonistic responses of herbicide Combinations”, Weeds, 15, 20-22, 1967) and compared with the observed efficacies.
Colby's formula: E=x+y−x·y/100
E expected efficacy, expressed in % of the untreated control, when using the mixture of the active compounds A and B at the concentrations a and b x efficacy, expressed in % of the untreated control, when using the active compound A at the concentration a y efficacy, expressed in % of the untreated control, when using the active compound B at the concentration b

[3] = system: Plasmopara viticola; experiment: Activity against peronospora of grapevines caused by Plasmopara viticola, 9 day protective application; format: in vivo; conditions: potted vines, inoculated 9 days after treatment
Experimental: as §1
Leaves of potted vines were sprayed to runoff point with an aqueous suspension having the concentration of active compound stated below. To be able to assess the persistency of the substances, the plants were, after the spray coating had dried on, placed in a greenhouse for 9 days. Only then were the leaves inoculated with an aqueous zoospore suspension of Plasmopara viticola. The grapevines were then initially placed in a water-vapor-saturated chamber at 24° C. for 48 hours and then in a greenhouse at temperatures between 20 and 30° C. for 5 days. After this time, the plants were again placed in a humid chamber for 16 hours, to promote sporangiophore eruption. The extent of the development of the infection on the undersides of the leaves was then determined visually.
as §2

`C[N+](C)(C)CCCl` [chlormequat chloride (IIc.1), chlormequat chloride] was tested, and the “Efficacy in % of the untreated control” value ([1]; 3.1 ppm in the spray liquor) was 0% and the “Efficacy in % of the untreated control” value ([1]; 6.3 ppm in the spray liquor) was 0%.

`CCC(=O)C1=C([O-])CC(C(=O)[O-])CC1=O.[Ca+2]` (stereo not drawn) [prohexadione-Ca (IIa.1), prohexadione-Ca] was tested, and the “Efficacy in % of the untreated control” value ([2]; 50 ppm in the spray liquor) was 4%, the “Efficacy in % of the untreated control” value ([2]; 100 ppm in the spray liquor) was 29% and the “Efficacy in % of the untreated control” value ([3]; 50 ppm in the spray liquor) was 0%. For the same compound, the “Efficacy in % of the untreated control” value ([3]; 100 ppm in the spray liquor) was 0%.

With `CC1CCN(c2c(-c3c(F)cc(F)cc3F)c(Cl)nc3ncnn23)CC1` [I-1, 5-chloro-7-(4-methylpiperidin-1-yl)-6-(2,4,6-trifluorophenyl)-[1,2,4]triazolo[1,5-a]pyrimidine] the “Efficacy in % of the untreated control” value ([2]; 25 ppm in the spray liquor) was 18%, the “Efficacy in % of the untreated control” value ([2]; 50 ppm in the spray liquor) was 48% and the “Efficacy in % of the untreated control” value ([3]; 25 ppm in the spray liquor) was 13%. The “Efficacy in % of the untreated control” value ([3]; 50 ppm in the spray liquor) was 25% and the “Efficacy in % of the untreated control” value ([1]; 3.1 ppm in the spray liquor) was 66%.

In the case of `CC(=NNC(=O)Nc1cc(F)cc(F)c1)c1ncccc1C(=O)O` [diflufenzopyr (III.1), 2-{1-[4-(3,5-difluorophenyl)semicarbazono]ethyl}nicotinic acid], the “Efficacy in % of the untreated control” value ([1]; 0.031 ppm in the spray liquor) is reported as 0%.
